Reference: ChEMBL document CHEMBL4368915, “Synthesis and Biological Investigation of Phenothiazine-Based Benzhydroxamic Acids as Selective Histone Deacetylase 6 Inhibitors” (J Med Chem, 2019)
Activity calls are given as the source filed them. No cut-off for these calls is given here.

Legend:
[1] = Drug level in human liver microsomes treated with 2 uM 4-[(10H-Phenothiazin-10-yl)methyl]-N-hydroxybenzamide assessed as compound formation after 40 mins by LC-MS/MS analysis; type: ADME, Microsome
[2] = target: Histone deacetylase 1 (Homo sapiens, UniProt Q13547)
Chain of Histone deacetylase 1 (Q13547 whole entry): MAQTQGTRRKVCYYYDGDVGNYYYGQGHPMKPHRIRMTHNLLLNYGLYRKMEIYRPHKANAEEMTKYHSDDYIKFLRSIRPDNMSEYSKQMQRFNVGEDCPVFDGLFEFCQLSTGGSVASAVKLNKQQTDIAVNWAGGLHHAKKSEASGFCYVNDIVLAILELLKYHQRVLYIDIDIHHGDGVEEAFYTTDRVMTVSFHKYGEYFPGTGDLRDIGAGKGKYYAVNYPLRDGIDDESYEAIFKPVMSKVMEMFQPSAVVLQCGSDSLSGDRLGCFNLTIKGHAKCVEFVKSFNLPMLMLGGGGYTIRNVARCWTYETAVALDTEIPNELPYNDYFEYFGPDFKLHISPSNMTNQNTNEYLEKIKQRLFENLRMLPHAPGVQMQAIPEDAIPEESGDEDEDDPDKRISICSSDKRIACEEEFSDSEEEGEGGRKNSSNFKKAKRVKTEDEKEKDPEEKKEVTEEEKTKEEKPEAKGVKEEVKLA

[3] = target: T1, Protein deacetylase HDAC6 (Homo sapiens, UniProt Q9UBN7)
T1 sequence (Q9UBN7 whole entry): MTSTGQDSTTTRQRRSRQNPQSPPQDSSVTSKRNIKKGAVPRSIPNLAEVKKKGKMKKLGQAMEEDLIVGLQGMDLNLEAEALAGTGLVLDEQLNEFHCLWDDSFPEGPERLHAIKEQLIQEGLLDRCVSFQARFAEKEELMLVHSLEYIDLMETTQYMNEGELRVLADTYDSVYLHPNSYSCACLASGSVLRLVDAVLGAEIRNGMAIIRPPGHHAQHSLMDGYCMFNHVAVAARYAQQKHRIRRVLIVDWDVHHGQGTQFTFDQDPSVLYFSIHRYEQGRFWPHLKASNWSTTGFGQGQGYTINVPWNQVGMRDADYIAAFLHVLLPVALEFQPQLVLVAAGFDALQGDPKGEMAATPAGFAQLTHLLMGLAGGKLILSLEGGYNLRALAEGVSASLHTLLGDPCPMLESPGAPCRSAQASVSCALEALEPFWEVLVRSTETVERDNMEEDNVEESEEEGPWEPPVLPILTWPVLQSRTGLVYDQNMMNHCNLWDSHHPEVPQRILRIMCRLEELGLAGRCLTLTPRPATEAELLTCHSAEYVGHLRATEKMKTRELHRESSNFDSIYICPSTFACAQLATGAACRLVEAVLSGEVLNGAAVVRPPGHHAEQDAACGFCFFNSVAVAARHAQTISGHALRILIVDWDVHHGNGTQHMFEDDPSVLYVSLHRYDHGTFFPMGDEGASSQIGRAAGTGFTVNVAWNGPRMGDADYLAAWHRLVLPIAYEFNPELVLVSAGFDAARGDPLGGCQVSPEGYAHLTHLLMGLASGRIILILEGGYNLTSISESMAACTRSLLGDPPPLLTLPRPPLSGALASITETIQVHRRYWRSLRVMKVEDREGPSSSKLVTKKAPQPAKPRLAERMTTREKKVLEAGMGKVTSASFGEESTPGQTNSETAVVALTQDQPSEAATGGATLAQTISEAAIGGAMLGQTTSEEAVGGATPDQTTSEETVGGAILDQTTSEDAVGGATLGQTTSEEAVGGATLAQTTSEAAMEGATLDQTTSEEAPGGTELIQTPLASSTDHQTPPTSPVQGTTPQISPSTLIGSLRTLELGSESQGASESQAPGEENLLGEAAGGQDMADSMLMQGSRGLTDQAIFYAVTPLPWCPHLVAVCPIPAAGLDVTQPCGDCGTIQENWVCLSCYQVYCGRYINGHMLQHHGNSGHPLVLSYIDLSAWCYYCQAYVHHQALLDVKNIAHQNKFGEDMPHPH

[4] = test system: HepaRG; experiment: Cytotoxicity against human HepaRG cells assessed as cell viability at 100 uM after 24 hrs by CellTiter blue-reagent based assay relative to control; conditions: heparg, 24 h, 100 µM
[5] = target: Histone deacetylase 4 (Homo sapiens) (UniProt P56524); experiment: Inhibition of recombinant N-terminal GST/His-tagged human HDAC4 (627 to 1084 residues) expressed in baculovirus expression system at 10 uM using fluorogenic ZMTFAL as substrate incubated for 90 mins by fluorescence assay relative to control
Chain of Histone deacetylase 4 (Homo sapiens) (P56524 whole entry, the tested form may be a part): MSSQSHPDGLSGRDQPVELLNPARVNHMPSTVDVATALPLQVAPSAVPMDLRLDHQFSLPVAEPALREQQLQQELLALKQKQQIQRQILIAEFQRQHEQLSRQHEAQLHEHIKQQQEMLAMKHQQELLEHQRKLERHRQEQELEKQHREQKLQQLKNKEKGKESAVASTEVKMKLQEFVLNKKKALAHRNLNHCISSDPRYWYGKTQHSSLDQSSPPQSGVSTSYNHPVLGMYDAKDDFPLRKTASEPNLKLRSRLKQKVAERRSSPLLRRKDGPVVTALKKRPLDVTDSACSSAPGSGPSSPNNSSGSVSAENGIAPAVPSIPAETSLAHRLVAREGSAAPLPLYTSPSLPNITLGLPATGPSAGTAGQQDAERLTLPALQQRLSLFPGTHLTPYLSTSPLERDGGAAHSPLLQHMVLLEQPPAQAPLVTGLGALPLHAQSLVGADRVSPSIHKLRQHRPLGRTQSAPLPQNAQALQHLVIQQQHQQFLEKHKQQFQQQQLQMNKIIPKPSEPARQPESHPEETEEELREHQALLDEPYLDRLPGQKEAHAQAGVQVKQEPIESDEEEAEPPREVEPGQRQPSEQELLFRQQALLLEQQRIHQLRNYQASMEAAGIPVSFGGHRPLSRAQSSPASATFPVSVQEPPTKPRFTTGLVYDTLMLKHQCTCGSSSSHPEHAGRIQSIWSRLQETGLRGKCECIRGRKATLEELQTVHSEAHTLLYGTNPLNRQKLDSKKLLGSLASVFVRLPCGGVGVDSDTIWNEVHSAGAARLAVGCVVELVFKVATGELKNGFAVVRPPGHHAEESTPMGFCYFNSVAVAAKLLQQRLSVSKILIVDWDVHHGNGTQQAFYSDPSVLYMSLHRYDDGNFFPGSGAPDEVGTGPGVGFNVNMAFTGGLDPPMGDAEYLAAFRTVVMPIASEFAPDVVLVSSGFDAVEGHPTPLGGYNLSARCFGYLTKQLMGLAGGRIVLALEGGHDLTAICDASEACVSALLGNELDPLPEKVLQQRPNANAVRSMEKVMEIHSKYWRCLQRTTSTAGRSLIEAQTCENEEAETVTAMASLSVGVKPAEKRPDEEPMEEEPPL

[6] = Half life in human liver microsomes at 2 uM by LC-MS/MS analysis; type: ADME, Microsome
[7] = Intrinsic clearance in human liver microsomes at 2 uM by LC-MS/MS analysis; type: ADME, Microsome
[8] = target: T2, CYP1A2 (Homo sapiens, UniProt P05177); experiment: Inhibition of human CYP1A2 in human liver microsomes at 10 uM relative to control; type: ADME
T2 sequence (P05177 whole entry): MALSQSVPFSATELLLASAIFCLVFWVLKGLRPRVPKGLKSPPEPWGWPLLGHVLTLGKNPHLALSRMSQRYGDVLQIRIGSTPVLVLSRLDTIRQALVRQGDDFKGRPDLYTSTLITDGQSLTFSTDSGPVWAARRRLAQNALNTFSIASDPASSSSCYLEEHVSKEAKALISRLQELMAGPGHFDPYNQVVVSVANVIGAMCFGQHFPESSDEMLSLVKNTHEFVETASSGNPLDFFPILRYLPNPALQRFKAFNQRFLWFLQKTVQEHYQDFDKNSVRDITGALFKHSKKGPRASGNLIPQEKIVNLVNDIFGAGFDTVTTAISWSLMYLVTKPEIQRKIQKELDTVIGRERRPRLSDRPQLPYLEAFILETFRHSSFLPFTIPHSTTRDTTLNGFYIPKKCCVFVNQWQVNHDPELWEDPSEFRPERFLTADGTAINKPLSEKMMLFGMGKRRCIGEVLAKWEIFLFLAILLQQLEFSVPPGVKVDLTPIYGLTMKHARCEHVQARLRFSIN

[9] = target: CYP2C9 (Homo sapiens, UniProt P11712); experiment: Inhibition of human CYP2C9 in human liver microsomes at 10 uM relative to control; type: ADME
Chain of CYP2C9 (P11712 whole entry): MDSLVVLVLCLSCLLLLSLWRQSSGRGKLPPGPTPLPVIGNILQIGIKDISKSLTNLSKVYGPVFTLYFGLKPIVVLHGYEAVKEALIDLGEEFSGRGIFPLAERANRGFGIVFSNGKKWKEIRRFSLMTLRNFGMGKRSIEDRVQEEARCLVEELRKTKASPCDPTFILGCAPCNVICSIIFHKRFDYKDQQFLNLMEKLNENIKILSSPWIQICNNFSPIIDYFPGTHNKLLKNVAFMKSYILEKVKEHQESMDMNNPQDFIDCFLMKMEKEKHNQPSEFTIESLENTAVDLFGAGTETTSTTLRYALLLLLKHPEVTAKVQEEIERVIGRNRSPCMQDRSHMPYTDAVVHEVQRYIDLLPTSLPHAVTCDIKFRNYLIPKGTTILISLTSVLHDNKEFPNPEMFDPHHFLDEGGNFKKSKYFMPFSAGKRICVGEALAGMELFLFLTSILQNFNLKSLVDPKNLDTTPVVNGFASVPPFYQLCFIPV

[10] = target: CYP2C19 (Homo sapiens, UniProt P33261); experiment: Inhibition of human CYP2C19 in human liver microsomes at 10 uM relative to control; type: ADME
Chain of CYP2C19 (P33261 whole entry): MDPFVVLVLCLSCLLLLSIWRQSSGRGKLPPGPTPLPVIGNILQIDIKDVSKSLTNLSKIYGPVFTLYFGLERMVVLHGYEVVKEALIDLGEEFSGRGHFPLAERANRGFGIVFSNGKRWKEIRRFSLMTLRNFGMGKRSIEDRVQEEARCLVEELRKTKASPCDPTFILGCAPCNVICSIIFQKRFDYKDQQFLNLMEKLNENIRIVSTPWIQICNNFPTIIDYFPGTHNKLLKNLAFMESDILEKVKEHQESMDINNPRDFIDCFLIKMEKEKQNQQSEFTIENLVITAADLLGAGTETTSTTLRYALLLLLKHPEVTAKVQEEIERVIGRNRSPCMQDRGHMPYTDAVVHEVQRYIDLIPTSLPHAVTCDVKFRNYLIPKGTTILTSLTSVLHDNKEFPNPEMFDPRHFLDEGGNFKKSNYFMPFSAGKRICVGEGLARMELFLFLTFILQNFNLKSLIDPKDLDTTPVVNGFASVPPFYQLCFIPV

[11] = target: CYP2D6 (Homo sapiens, UniProt P10635); experiment: Inhibition of human CYP2D6 in human liver microsomes at 10 uM relative to control; type: ADME
Chain of CYP2D6 (P10635 whole entry): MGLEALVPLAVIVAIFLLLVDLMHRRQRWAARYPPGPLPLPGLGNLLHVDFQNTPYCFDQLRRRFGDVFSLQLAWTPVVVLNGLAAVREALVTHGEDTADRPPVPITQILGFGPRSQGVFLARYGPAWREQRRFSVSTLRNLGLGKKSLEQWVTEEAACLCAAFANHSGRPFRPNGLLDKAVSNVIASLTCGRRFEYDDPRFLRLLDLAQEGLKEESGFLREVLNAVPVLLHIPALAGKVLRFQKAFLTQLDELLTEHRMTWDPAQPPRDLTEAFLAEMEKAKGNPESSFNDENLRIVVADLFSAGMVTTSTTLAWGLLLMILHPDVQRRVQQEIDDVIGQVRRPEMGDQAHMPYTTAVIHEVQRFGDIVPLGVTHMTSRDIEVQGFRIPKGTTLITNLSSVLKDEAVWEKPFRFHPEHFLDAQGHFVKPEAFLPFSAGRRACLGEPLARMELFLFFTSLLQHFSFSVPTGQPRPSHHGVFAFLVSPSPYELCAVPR

[12] = target: CYP3A4 (Homo sapiens, UniProt P08684); experiment: Inhibition of human CYP3A4 in human liver microsomes at 10 uM relative to control; type: ADME
Chain of CYP3A4 (P08684 whole entry): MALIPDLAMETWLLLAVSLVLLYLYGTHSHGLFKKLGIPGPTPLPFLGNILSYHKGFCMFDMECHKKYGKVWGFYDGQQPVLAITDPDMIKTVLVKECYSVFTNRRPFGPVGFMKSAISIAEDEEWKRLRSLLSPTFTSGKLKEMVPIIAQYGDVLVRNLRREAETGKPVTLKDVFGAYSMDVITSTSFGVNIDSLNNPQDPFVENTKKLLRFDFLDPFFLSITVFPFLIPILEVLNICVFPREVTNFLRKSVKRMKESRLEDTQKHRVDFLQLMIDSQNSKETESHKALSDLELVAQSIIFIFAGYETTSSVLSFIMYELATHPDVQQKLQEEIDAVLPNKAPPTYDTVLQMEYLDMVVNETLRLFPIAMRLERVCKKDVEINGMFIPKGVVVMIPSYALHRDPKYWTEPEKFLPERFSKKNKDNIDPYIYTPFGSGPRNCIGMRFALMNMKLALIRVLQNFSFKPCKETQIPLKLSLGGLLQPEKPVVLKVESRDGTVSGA

[13] = test system: T-24; experiment: Synergistic potentiation of Bortezomib-induced antiproliferative activity against human T24 cells assessed as effect on cell index, at 1 uM incubated for 24 hrs by cell impedance based assay; type: functional
[14] = Stability in human liver microsomes assessed as compound remaining at 2 uM after 40 mins by LC-MS/MS analysis; type: ADME, Microsome; conditions: read-out: Stability
[15] = Drug metabolism in human liver microsomes assessed as N-Hydroxy-4-[(5-oxido-10H-Phenothiazin-10-yl)methyl]-benzamide formation at 2 uM after 40 mins by LC-MS/MS analysis; type: ADME, Microsome
[16] = Drug metabolism in human liver microsomes assessed as 4-[(5,5-Dioxido-10H-phenothiazin-10-yl)methyl]-N-hydroxybenzamide formation at 2 uM after 40 mins by LC-MS/MS analysis; type: ADME, Microsome
[17] = target: T3, Histone deacetylase 8 (Homo sapiens, UniProt Q9BY41)
T3 sequence (Q9BY41 whole entry): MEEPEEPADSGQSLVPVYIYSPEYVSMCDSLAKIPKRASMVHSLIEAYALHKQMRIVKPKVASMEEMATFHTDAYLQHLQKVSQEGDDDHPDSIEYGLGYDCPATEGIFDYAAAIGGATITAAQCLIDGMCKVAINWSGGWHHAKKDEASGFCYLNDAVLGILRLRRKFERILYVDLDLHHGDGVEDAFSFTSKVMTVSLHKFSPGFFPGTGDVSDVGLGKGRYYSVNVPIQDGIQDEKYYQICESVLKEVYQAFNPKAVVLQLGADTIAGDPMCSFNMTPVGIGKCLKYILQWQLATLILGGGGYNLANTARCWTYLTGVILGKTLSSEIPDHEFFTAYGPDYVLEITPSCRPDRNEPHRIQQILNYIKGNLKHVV

[18] = target: T4, Histone deacetylase 8 (Homo sapiens) (UniProt Q9BY41); experiment: Inhibition of recombinant human HDAC8 expressed in baculovirus expression system at 1 uM using fluorogenic Arg-His-Lys(Ac)-Lys(Ac) as substrate incubated for 90 mins by fluorescence assay
T4 sequence (whole entry): T3 sequence (Q9BY41 whole entry)

**Q.** With O=C(NO)c1ccc(CN2c3ccccc3S(=O)(=O)c3ccccc32)cc1 as the molecule, how does the Drug uptake [1] read?
**A.** Active

**Q.** And the IC50 [2]?
**A.** 3990 nM

**Q.** For O=C(NO)c1ccc(CN2c3ccccc3Sc3ccncc32)cc1, which IC50 [3] is on record?
**A.** 7 nM

**Q.** Which results are given for O=C(NO)c1ccc(CN2c3ccccc3Sc3cccc(Cl)c32)cc1?
**A.** IC50 [2]: 5760 nM; IC50 [3]: 16 nM

**Q.** Which Activity [4] does the source give for O=C(NO)c1ccc(CN2c3ccccc3Sc3ccccc32)cc1 here?
**A.** Non-Toxic

**Q.** And the inhibition [5]?
**A.** < 20%

**Q.** What about the t1/2 [6] of the same molecule?
**A.** 1.95 h

**Q.** And the CLH [7]?
**A.** 14 µL/min/mg

**Q.** And the inhibition at 10 µM [8]?
**A.** 20%

**Q.** And the inhibition at 10 µM [9]?
**A.** 24.4%

**Q.** And the inhibition at 10 µM [10]?
**A.** 36.4%

**Q.** What about the inhibition at 10 µM [11] of the same molecule?
**A.** 45.4%

**Q.** And the inhibition at 10 µM [12]?
**A.** 24.3%

**Q.** What about the Activity [13] of the same molecule?
**A.** inactive

**Q.** And the remaining at 40 min, 2 µM [14]?
**A.** 77%

**Q.** What about the Drug metabolism [15] of the same molecule?
**A.** Metabolite_Detected

**Q.** And the Drug metabolism [16]?
**A.** Metabolite_Detected

**Q.** What about the IC50 [2] of the same molecule?
**A.** 5080 nM

**Q.** What about the IC50 [17] of the same molecule?
**A.** 1480 nM

**Q.** Which inhibition [18] does the source give for CN1CCC2=C(C1)N(Cc1ccc(C(=O)NO)cc1)c1ccccc1S2 here?
**A.** 66%

**Q.** And the IC50 [2]?
**A.** 980 nM

**Q.** What about the IC50 [3] of the same molecule?
**A.** 32 nM

**Q.** For O=C(NO)c1ccc(CN2c3ccccc3Sc3nccnc32)cc1, which IC50 [3] is on record?
**A.** 17 nM

**Q.** Which t1/2 [6] does the source give for Cn1c(=O)c2c(ncn2C)n(C)c1=O [CAFFEINE] here?
**A.** 6.22 h

**Q.** What about the CLH [7] of the same molecule?
**A.** 4 µL/min/mg

**Q.** With O=C(NO)c1ccc(CN2c3ccccc3Sc3ccnnc32)cc1 as the molecule, how does the IC50 [3] read?
**A.** 11 nM

**Q.** Which IC50 [2] does the source give for CCSc1ccc2c(c1)N(Cc1ccc(C(=O)NO)cc1)c1ccccc1S2 here?
**A.** 7200 nM

**Q.** And the IC50 [3]?
**A.** 31 nM

**Q.** What does the source list for O=C(NO)c1ccc(CN2c3ccccc3Sc3ccc(C(F)(F)F)cc32)cc1?
**A.** IC50 [2]: 7490 nM; IC50 [3]: 25 nM

**Q.** For O=C(NO)c1ccc(CCN2c3ccccc3Sc3ccccc32)cc1, which IC50 [3] is on record?
**A.** 136 nM

**Q.** With O=C(NO)c1ccc(CN2c3ccccc3Sc3cc(Cl)nnc32)cc1 as the molecule, how does the IC50 [3] read?
**A.** 18 nM
